pIC50: −log10 of the molar value. Starred links: 1 amine or outer side, 2 acyl side, 3 side chain; linkers in the order of their positions; H or OH if unused. Positions of bridges follow the written chain, without caps; N, C: chain ends. Non-standard residues stand in square brackets, D forms with d. Residues, ends and D or L forms follow the SMILES beside them. Groups on a side chain read outwards from the residue. *: point of attachment. Trp(1-CH2CO2Me) = COC(=O)Cn1cc(C[C@H](N)C(=O)O)c2ccccc21; Trp(1-CH2COOH) = N[C@@H](Cc1cn(CC(=O)O)c2ccccc12)C(=O)O; X57 = O=C([C@H](CN/C(=N/c1ccccc1)c1ccccc1)N[*:1])[*:2]; Acridine9carbonyl = O=C(c1c2ccccc2nc2ccccc12)*; X63 = COc1cc([N+](=O)[O-])ccc1NC(=S)*; X8 = NC(=O)c1c[nH]c2c(NC(=S)*)cccc12; X95 = O=[N+]([O-])c1cccc(NC(=S)*)c1; Hyp = O=C(O)[C@@H]1C[C@@H](O)CN1; X35 = Cc1n[nH]c2c(NC(=S)*)cccc12; X27 = Cc1cc([N+](=O)[O-])ccc1N*; X3 = S=C(Nc1ccc(Oc2ccccc2)cc1)*; NMeNle = CCCC[C@H](NC)C(=O)O; X7 = S=C(Nc1ccc2cc[nH]c2c1)*; X12 = S=C(Nc1ccc2ccccc2c1)*; NMeA = CN[C@@H](C)C(=O)O; Dab = NCC[C@H](N)C(=O)O; X45 = c1ccc2sc(N*)cc2c1; Dap = NC[C@H](N)C(=O)O; X15 = Cc1ccc(Cl)cc1N*; CO = O=C([*:1])[*:2]
target: T1, PD-1/PD-L1 (Homo sapiens, UniProt Q9NZQ7); assay: PD-1/PD-L1 Homogenous Time-Resolved Fluorescence (HTRF) binding assay; conditions: not given
T1 construct: TVMV protease site linker (C); made in house; host or cells: HEK293T cells
T1 sequence (Q9NZQ7 18-239): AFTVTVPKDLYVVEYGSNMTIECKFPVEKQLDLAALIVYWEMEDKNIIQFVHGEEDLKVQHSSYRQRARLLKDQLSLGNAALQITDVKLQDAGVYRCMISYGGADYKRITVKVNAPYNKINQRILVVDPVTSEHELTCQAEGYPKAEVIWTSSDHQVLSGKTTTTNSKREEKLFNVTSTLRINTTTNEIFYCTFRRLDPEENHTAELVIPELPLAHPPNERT
Outline: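 HTRF read-out using europium cryptate anti-Ig (1 nM) and APC anti-His (20 nM) on extracellular-domain fusion proteins in dPBS/0.1% BSA/0.05% Tween-20. Inhibitor first incubated 15 min with 10 nM PD-L1-His, followed by 20 nM PD-1-Ig for another 15 min.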

Row | SMILES | pIC50
1 | CCCC[C@H]1C(=O)N(C)[C@@H](CCCC)C(=O)N[C@@H](CC(C)C)C(=O)N[C@H](C(=O)NCC(N)=O)CSCC(=O)N[C@@H](Cc2ccc(O)cc2)C(=O)N(C)[C@@H](C)C(=O)N[C@@H](CC(N)=O)C(=O)N2CCC[C@H]2C(=O)N[C@@H](CNC(=S)Nc2ccc([N+](=O)[O-])cc2OC)C(=O)N[C@@H](CC(C)C)C(=O)N2C[C@H](O)C[C@H]2C(=O)N[C@@H](Cc2c[nH]c3ccccc23)C(=O)N[C@@H](CCNC(=S)Nc2ccc([N+](=O)[O-])cc2OC)C(=O)N[C@@H](Cc2cn(CC(=O)O)c3ccccc23)C(=O)N1C [Example 1104] ({CH2CO}-Y[NMeA]NP[Dap](X63)L[Hyp]W[Dab](X63)[Trp(1-CH2COOH)][NMeNle][NMeNle]LCG-NH2; thioether N-14) | 7.92

same assay, conditions: PD-L1-His 10 nM pre-incubated with inhibitor, PD-1-Ig 20 nM; read-out: HTRF IC50

Row | SMILES | pIC50
2 | CCCC[C@H]1C(=O)N(C)[C@@H](CCCC)C(=O)N[C@@H](CC(C)C)C(=O)N[C@H](C(=O)NCC(N)=O)CSCC(=O)N[C@@H](Cc2ccc(O)cc2)C(=O)N(C)[C@@H](C)C(=O)N[C@@H](CC(N)=O)C(=O)N2CCC[C@H]2C(=O)N[C@@H](CNC(=O)Nc2cc(Cl)ccc2C)C(=O)N[C@@H](CC(C)C)C(=O)N2C[C@H](O)C[C@H]2C(=O)N[C@@H](Cc2c[nH]c3ccccc23)C(=O)N[C@@H](CCN)C(=O)N[C@@H](Cc2cn(CC(=O)O)c3ccccc23)C(=O)N1C [Example 1106] ({CH2CO}-Y[NMeA]NP[Dap]([CO-X15])L[Hyp]W[Dab][Trp(1-CH2COOH)][NMeNle][NMeNle]LCG-NH2; thioether N-14) | 8.00
3 | CCCC[C@H]1C(=O)N(C)[C@@H](CCCC)C(=O)N[C@@H](CC(C)C)C(=O)N[C@H](C(=O)NCC(N)=O)CSCC(=O)N[C@@H](Cc2ccc(O)cc2)C(=O)N(C)[C@@H](C)C(=O)N[C@@H](CC(N)=O)C(=O)N2CCC[C@H]2C(=O)N[C@@H](CNC(=O)c2c3ccccc3nc3ccccc23)C(=O)N[C@@H](CC(C)C)C(=O)N2C[C@H](O)C[C@H]2C(=O)N[C@@H](Cc2c[nH]c3ccccc23)C(=O)N[C@@H](CCNC(=O)c2c3ccccc3nc3ccccc23)C(=O)N[C@@H](Cc2cn(CC(=O)OC)c3ccccc23)C(=O)N1C [Example 2003] ({CH2CO}-Y[NMeA]NP[Dap](Acridine9carbonyl)L[Hyp]W[Dab](Acridine9carbonyl)[Trp(1-CH2CO2Me)][NMeNle][NMeNle]LCG-NH2; thioether N-14) | 7.65
4 | CCCC[C@H]1C(=O)N(C)[C@@H](CCCC)C(=O)N[C@@H](CC(C)C)C(=O)N[C@H](C(=O)NCC(N)=O)CSCC(=O)N[C@@H](Cc2ccc(O)cc2)C(=O)N(C)[C@@H](C)C(=O)N[C@@H](CC(N)=O)C(=O)N2CCC[C@H]2C(=O)N[C@@H](CNC(=S)Nc2ccc(Oc3ccccc3)cc2)C(=O)N[C@@H](CC(C)C)C(=O)N2C[C@H](O)C[C@H]2C(=O)N[C@@H](Cc2c[nH]c3ccccc23)C(=O)N[C@@H](CCNC(=S)Nc2ccc(Oc3ccccc3)cc2)C(=O)N[C@@H](Cc2cn(CC(=O)O)c3ccccc23)C(=O)N1C [Example 1046] ({CH2CO}-Y[NMeA]NP[Dap](X3)L[Hyp]W[Dab](X3)[Trp(1-CH2COOH)][NMeNle][NMeNle]LCG-NH2; thioether N-14) | 7.96
5 | CCCC[C@H]1C(=O)N(C)[C@@H](CCCC)C(=O)N[C@@H](CC(C)C)C(=O)N[C@H](C(=O)NCC(N)=O)CSCC(=O)N[C@@H](Cc2ccc(O)cc2)C(=O)N(C)[C@@H](C)C(=O)N[C@@H](CC(N)=O)C(=O)N2CCC[C@H]2C(=O)N[C@@H](CNC(=S)Nc2ccc3ccccc3c2)C(=O)N[C@@H](CC(C)C)C(=O)N2C[C@H](O)C[C@H]2C(=O)N[C@@H](Cc2c[nH]c3ccccc23)C(=O)N[C@@H](CCN)C(=O)N[C@@H](Cc2cn(CC(=O)O)c3ccccc23)C(=O)N1C [Example 3028] ({CH2CO}-Y[NMeA]NP[Dap](X12)L[Hyp]W[Dab][Trp(1-CH2COOH)][NMeNle][NMeNle]LCG-NH2; thioether N-14) | 9.22
6 | CCCC[C@H]1C(=O)N(C)[C@@H](CCCC)C(=O)N[C@@H](CC(C)C)C(=O)N[C@H](C(=O)NCC(N)=O)CSCC(=O)N[C@@H](Cc2ccc(O)cc2)C(=O)N(C)[C@@H](C)C(=O)N[C@@H](CC(N)=O)C(=O)N2CCC[C@H]2C(=O)N[C@@H](CNC(=O)Nc2cc3ccccc3s2)C(=O)N[C@@H](CC(C)C)C(=O)N2C[C@H](O)C[C@H]2C(=O)N[C@@H](Cc2c[nH]c3ccccc23)C(=O)N[C@@H](CCNC(=O)Nc2cc3ccccc3s2)C(=O)N[C@@H](Cc2cn(CC(=O)O)c3ccccc23)C(=O)N1C [Example 3022] ({CH2CO}-Y[NMeA]NP[Dap]([CO-X45])L[Hyp]W[Dab]([CO-X45])[Trp(1-CH2COOH)][NMeNle][NMeNle]LCG-NH2; thioether N-14) | 7.96
7 | CCCC[C@H]1C(=O)N(C)[C@@H](CCCC)C(=O)N[C@@H](CC(C)C)C(=O)N[C@H](C(=O)NCC(N)=O)CSCC(=O)N[C@@H](Cc2ccc(O)cc2)C(=O)N(C)[C@@H](C)C(=O)N[C@@H](CC(N)=O)C(=O)N2CCC[C@H]2C(=O)N[C@@H](CNC(=S)Nc2cccc([N+](=O)[O-])c2)C(=O)N[C@@H](CC(C)C)C(=O)N2C[C@H](O)C[C@H]2C(=O)N[C@@H](Cc2c[nH]c3ccccc23)C(=O)N[C@@H](CCN)C(=O)N[C@@H](Cc2cn(CC(=O)O)c3ccccc23)C(=O)N1C [Example 1037] ({CH2CO}-Y[NMeA]NP[Dap](X95)L[Hyp]W[Dab][Trp(1-CH2COOH)][NMeNle][NMeNle]LCG-NH2; thioether N-14) | 8.55
8 | CCCC[C@H]1C(=O)N(C)[C@@H](CCCC)C(=O)N[C@@H](CC(C)C)C(=O)N[C@H](C(=O)NCC(N)=O)CSCC(=O)N[C@@H](Cc2ccc(O)cc2)C(=O)N(C)[C@@H](C)C(=O)N[C@@H](CC(N)=O)C(=O)N2CCC[C@H]2C(=O)N[C@@H](CN/C(=N/c2ccccc2)c2ccccc2)C(=O)N[C@@H](CC(C)C)C(=O)N2C[C@H](O)C[C@H]2C(=O)N[C@@H](Cc2c[nH]c3ccccc23)C(=O)N[C@@H](CCN)C(=O)N[C@@H](Cc2cn(CC(=O)O)c3ccccc23)C(=O)N1C [Example 1018] ({CH2CO}-Y[NMeA]NP[X57]L[Hyp]W[Dab][Trp(1-CH2COOH)][NMeNle][NMeNle]LCG-NH2; thioether N-14) | 8.00
9 | CCCC[C@H]1C(=O)N(C)[C@@H](CCCC)C(=O)N[C@@H](CC(C)C)C(=O)N[C@H](C(=O)NCC(N)=O)CSCC(=O)N[C@@H](Cc2ccc(O)cc2)C(=O)N(C)[C@@H](C)C(=O)N[C@@H](CC(N)=O)C(=O)N2CCC[C@H]2C(=O)N[C@@H](CNC(=S)Nc2ccc3cc[nH]c3c2)C(=O)N[C@@H](CC(C)C)C(=O)N2C[C@H](O)C[C@H]2C(=O)N[C@@H](Cc2c[nH]c3ccccc23)C(=O)N[C@@H](CCNC(=S)Nc2ccc3cc[nH]c3c2)C(=O)N[C@@H](Cc2cn(CC(=O)O)c3ccccc23)C(=O)N1C [Example 3002] ({CH2CO}-Y[NMeA]NP[Dap](X7)L[Hyp]W[Dab](X7)[Trp(1-CH2COOH)][NMeNle][NMeNle]LCG-NH2; thioether N-14) | 8.37
10 | CCCC[C@H]1C(=O)N(C)[C@@H](CCCC)C(=O)N[C@@H](CC(C)C)C(=O)N[C@H](C(=O)NCC(N)=O)CSCC(=O)N[C@@H](Cc2ccc(O)cc2)C(=O)N(C)[C@@H](C)C(=O)N[C@@H](CC(N)=O)C(=O)N2CCC[C@H]2C(=O)N[C@@H](CNC(=O)Nc2ccc([N+](=O)[O-])cc2C)C(=O)N[C@@H](CC(C)C)C(=O)N2C[C@H](O)C[C@H]2C(=O)N[C@@H](Cc2c[nH]c3ccccc23)C(=O)N[C@@H](CCN)C(=O)N[C@@H](Cc2cn(CC(=O)O)c3ccccc23)C(=O)N1C [Example 1133] ({CH2CO}-Y[NMeA]NP[Dap]([CO-X27])L[Hyp]W[Dab][Trp(1-CH2COOH)][NMeNle][NMeNle]LCG-NH2; thioether N-14) | 8.08
11 | CCCC[C@H]1C(=O)N(C)[C@@H](CCCC)C(=O)N[C@@H](CC(C)C)C(=O)N[C@H](C(=O)NCC(N)=O)CSCC(=O)N[C@@H](Cc2ccc(O)cc2)C(=O)N(C)[C@@H](C)C(=O)N[C@@H](CC(N)=O)C(=O)N2CCC[C@H]2C(=O)N[C@@H](CNC(=S)Nc2ccc(Oc3ccccc3)cc2)C(=O)N[C@@H](CC(C)C)C(=O)N2C[C@H](O)C[C@H]2C(=O)N[C@@H](Cc2c[nH]c3ccccc23)C(=O)N[C@@H](CCNC(=S)Nc2ccc(Oc3ccccc3)cc2)C(=O)N[C@@H](Cc2cn(CC(=O)O)c3ccccc23)C(=O)N1C [Example 1080] ({CH2CO}-Y[NMeA]NP[Dap](X3)L[Hyp]W[Dab](X3)[Trp(1-CH2COOH)][NMeNle][NMeNle]LCG-NH2; thioether N-14) | 8.47
12 | CCCC[C@H]1C(=O)N(C)[C@@H](CCCC)C(=O)N[C@@H](CC(C)C)C(=O)N[C@H](C(=O)NCC(N)=O)CSCC(=O)N[C@@H](Cc2ccc(O)cc2)C(=O)N(C)[C@@H](C)C(=O)N[C@@H](CC(N)=O)C(=O)N2CCC[C@H]2C(=O)N[C@@H](CNC(=S)Nc2cccc3c(C(N)=O)c[nH]c23)C(=O)N[C@@H](CC(C)C)C(=O)N2C[C@H](O)C[C@H]2C(=O)N[C@@H](Cc2c[nH]c3ccccc23)C(=O)N[C@@H](CCN)C(=O)N[C@@H](Cc2cn(CC(=O)O)c3ccccc23)C(=O)N1C [Example 3017] ({CH2CO}-Y[NMeA]NP[Dap](X8)L[Hyp]W[Dab][Trp(1-CH2COOH)][NMeNle][NMeNle]LCG-NH2; thioether N-14) | 8.44
13 | CCCC[C@H]1C(=O)N(C)[C@@H](CCCC)C(=O)N[C@@H](CC(C)C)C(=O)N[C@H](C(=O)NCC(N)=O)CSCC(=O)N[C@@H](Cc2ccc(O)cc2)C(=O)N(C)[C@@H](C)C(=O)N[C@@H](CC(N)=O)C(=O)N2CCC[C@H]2C(=O)N[C@@H](CNC(=S)Nc2cccc3c(C)n[nH]c23)C(=O)N[C@@H](CC(C)C)C(=O)N2C[C@H](O)C[C@H]2C(=O)N[C@@H](Cc2c[nH]c3ccccc23)C(=O)N[C@@H](CCN)C(=O)N[C@@H](Cc2cn(CC(=O)O)c3ccccc23)C(=O)N1C [Example 3066] ({CH2CO}-Y[NMeA]NP[Dap](X35)L[Hyp]W[Dab][Trp(1-CH2COOH)][NMeNle][NMeNle]LCG-NH2; thioether N-14) | 8.34
